Read-outs that look alike come from different tables or passages of the source.
Tests used:
Assay type in all cases: cell-based
HeLa = assay: CCK-8 antiproliferative assay, HeLa
Procedure: (§1) Cells were seeded into 96-well plates at a density of 2.5–6 × 10^3 cells per well and incubated for 24 h. They were then treated with a series of eight concentrations of the test compounds (e.g., from 100 to 0.78125 μM or from 2 to 0.015625 μM, prepared by twofold serial dilution) for 48 h. After treatment, the medium was removed and replaced with 100 μL of 10% CCK-8 solution (diluted in fresh medium). Following incubation in the dark for 1–2 h, absorbance at 450 nm was measured using a microplate reader. The half-maximal inhibitory concentration (IC50) was calculated using SPSS software. Each concentration was tested in six replicate wells, and the entire experiment was performed in three independent biological replicates.
(§2) IC50 values were derived by nonlinear regression (SPSS 26). All data are presented as mean ± SD from at least three independent biological replicates (n ≥ 3). Differences were assessed by Student’s t-test (two groups) or one-way ANOVA with Tukey’s post hoc test (multiple groups). […] Statistical significance was set at p < 0.05.

SiHa = assay: CCK-8 antiproliferative assay, SiHa; details: read-out: IC50 SiHa
Procedure: as §1, §2

C-33A = assay: CCK-8 antiproliferative assay, C-33A; details: read-out: IC50 C-33A
Procedure: as §1, §2

H8 = assay: CCK-8 cytotoxicity, normal cervical epithelial cells H8; details: for IC50: read-out: IC50 H8; for toxicity to H8 cells in words: normal cervical epithelial cells
Procedure: as §1, §2

HeLa cells [1] = assay: GSH assay kit; details: Fer-1 5 μmol/L cotreated with 0.22 μmol/L B1, HeLa
Procedure: Intracellular GSH levels were measured using a GSH assay kit.
(§3) After 24 h of treatment, cells were collected and washed twice with PBS for subsequent analysis. […] Subsequent procedures were performed strictly according to the manufacturer’s instructions of the respective kits: MDA assay kit (Servicebio, Cat# GM1134), Fe^2+ colorimetric assay kit (Servicebio, Cat# GM3052), and reduced GSH assay kit (Servicebio, Cat# GM1139).

HeLa cells [2] = assay: MDA assay kit; details: Fer-1 5 μmol/L cotreated with 0.22 μmol/L B1, HeLa
Procedure: MDA levels in HeLa cells were detected using an MDA assay kit ([Tsikas et al., 2017]).
After 24 h of treatment, cells were collected and washed twice with PBS for subsequent analysis.

HeLa cells [3] = assay: Fe2+ assay kit; details: Fer-1 5 μmol/L cotreated with 0.22 μmol/L B1, HeLa
Procedure: Intracellular ferrous iron (Fe^2+) levels in HeLa cells were measured using an Fe^2+ assay kit.
as §3

SLC7A11 = assay: Western blot, SLC7A11 expression in HeLa cells; details: Fer-1 5 μmol/L cotreated with B1, HeLa
GPX4 = assay: Western blot, GPX4 expression in HeLa cells; details: Fer-1 5 μmol/L cotreated with B1, HeLa
[4] = Homo sapiens, HeLa, 48 h, read-out: IC50 HeLa
[5] = Homo sapiens, HeLa, CCK-8, 48 h, Table 1, read-out: IC50 HeLa
[6] = Homo sapiens, SiHa, CCK-8, 48 h, Table 1
[7] = Homo sapiens, C-33-A, CCK-8, 48 h, Table 1
[8] = Epithelial cell, CCK-8, 48 h, normal cells, Table 1
[9] = CCK-8, 48 h, Table 1, read-out: IC50 HeLa
[10] = CCK-8, 48 h, normal cells, Table 1

Structure (SMILES)	IC50 (HeLa; [4]) [µM]	IC50 (SiHa; Homo sapiens, SiHa, 48 h) [µM]	IC50 (C-33A; Homo sapiens, C-33-A, 48 h) [µM]	IC50 (H8; Epithelial cell, 48 h) [µM]	other results
O=C(/C=C/c1ccccc1OC(F)(F)F)c1ccc(N2CCCC2)cc1 [Compound D4]	4.09 ± 0.24	9.28 ± 0.33	33 ± 2.38	> 100	–
COc1ccc(Br)cc1C(=O)/C=C/c1ccc(N2CCCC2)cc1 [Compound B2]	1.09 ± 0.05	1.35 ± 0.13	4.4 ± 0.11	56.8 ± 0.75	–
COc1ccc(Cl)cc1C(=O)/C=C/c1ccc(N2CCCC2)cc1 [Compound B3]	1.59 ± 0.08	2.17 ± 0.02	4.29 ± 0.15	57 ± 2.47	–
O=C(/C=C/c1ccc(N2CCCC2)cc1)c1ccc(OC(F)(F)F)cc1 [Compound B7]	> 100	> 100	> 100	> 100	–
O=C(/C=C/c1ccccc1)c1ccccc1 [Chalcone, reference compound]	–	–	–	–	IC50 (HeLa; [5]): 63.9 ± 2.85 µM; IC50 (SiHa; [6]): 69.7 ± 1.67 µM; IC50 (C-33A; [7]): 58.7 ± 1.05 µM; IC50 (H8; [8]): 38.6 ± 1.64 µM
O=C(/C=C/c1ccc(N2CCCC2)cc1)c1ccc(C(F)(F)F)cc1 [Compound A8]	> 100	> 100	> 100	> 100	–
N.N.[Cl][Pt][Cl] [Cisplatin, reference compound]	–	–	–	–	IC50 (HeLa; [9]): 18.23 ± 0.11 µM; IC50 (SiHa; CCK-8, 48 h, Table 1): 37 ± 1.54 µM; IC50 (C-33A; CCK-8, 48 h, Table 1): 12.7 ± 1.09 µM; IC50 (H8; [10]): 25.6 ± 1.32 µM
COc1ccc(F)cc1/C=C/C(=O)c1ccc(N2CCCC2)cc1 [Compound D1]	5.25 ± 0.1	5.44 ± 0.23	20.9 ± 1.03	19.2 ± 1.08	–
O=C(/C=C/c1ccc(N2CCCC2)cc1)c1ccccc1C(F)(F)F [Compound A5]	13.6 ± 0.26	38 ± 0.74	36.69 ± 0.22	78.7 ± 1.41	–
COc1ccc(Br)cc1/C=C/C(=O)c1ccc(N2CCCC2)cc1 [Compound D2]	10.8 ± 0.37	11.55 ± 0.06	49.8 ± 2.93	40 ± 0.55	–
COc1ccc(C(=O)/C=C/c2ccc(N3CCCC3)cc2)c(OC)c1 [Compound A2]	16.7 ± 0.65	18.3 ± 0.73	17.9 ± 0.55	74 ± 1.05	–
O=C(/C=C/c1ccc(N2CCCC2)cc1)c1cccc(OC(F)(F)F)c1 [Compound B6]	> 100	49.5 ± 1.4	> 100	> 100	–
CCOc1ccccc1-n1c(C(C)N2CCN(C(=O)COc3ccc(Cl)cc3)CC2)nc2ccccc2c1=O (stereo not shown) [Erastin, reference compound]	–	–	–	–	IC50 (HeLa; Homo sapiens, HeLa, CCK-8, Table 3, ferroptosis inducer/inhibitor comparison, read-out: IC50 HeLa): 17.2 ± 0.53 µM
COc1ccc(OC)c(C(=O)/C=C/c2ccc(N3CCCC3)cc2)c1 [Compound C1]	9.3 ± 0.57	9.92 ± 0.67	13.8 ± 0.45	27.2 ± 2.33	IC50 (HeLa; Homo sapiens, HeLa): 27.1 µM
O=C(/C=C/c1ccc(N2CCCC2)cc1)c1cccc(C(F)(F)F)c1 [Compound A6]	31.8 ± 1.45	34.5 ± 0.59	35.1 ± 0.37	86.4 ± 3.17	IC50 (HeLa; Homo sapiens, HeLa): > 100 µM
O=C(/C=C/c1ccc(N2CCCC2)cc1)c1ccc(Cl)c(Cl)c1Cl [Compound A9]	–	–	–	–	IC50 (HeLa; [5]): > 100 µM; IC50 (SiHa; [6]): 90.5 ± 3.38 µM; IC50 (C-33A; [7]): > 100 µM; IC50 (H8; [8]): > 100 µM
Cc1cccc(C(=O)/C=C/c2ccc(N3CCCC3)cc2)c1 [Compound A7]	27.6 ± 2.23	16.41 ± 0.13	37.2 ± 0.19	91.6 ± 3.28	–
O=C(/C=C/c1ccc(N2CCCC2)cc1)c1ccccc1OC(F)(F)F [Compound B5]	0.9 ± 0.02	0.91 ± 0.03	5.93 ± 0.07	76.9 ± 3.87	–
COc1ccccc1C(=O)/C=C/c1ccc(N2CCCC2)cc1 [Compound A1]	3.04 ± 0.03	2.93 ± 0.21	4.79 ± 0.19	61.3 ± 1.34	toxicity to H8 cells in words (H8): low toxicity
O=C(/C=C/c1ccc(OC(F)(F)F)cc1)c1ccc(N2CCCC2)cc1 [Compound D6]	> 100	77.3 ± 2.13	> 100	> 100	–
COc1ccc(C(=O)/C=C/c2ccc(N3CCCC3)cc2)c(OC)c1OC [Compound A4]	15.7 ± 0.38	7.78 ± 0.24	21.3 ± 1.02	81 ± 1.03	–
COc1cccc(OC)c1C(=O)/C=C/c1ccc(N2CCCC2)cc1 [Compound A3]	31.5 ± 1.46	64.44 ± 0.57	> 100	> 100	–
CCOC(=O)c1ccc(NC2CCCCC2)c(N)c1 [Ferrostatin-1, ferrostatin-1]	–	–	–	–	intracellular GSH levels on cotreatment (HeLa cells [1]): increased; MDA levels on cotreatment (HeLa cells [2]): reduced; Fe^2+ levels on cotreatment (HeLa cells [3]): reduced; SLC7A11 protein expression level on cotreatment (SLC7A11): increased; GPX4 protein expression level on cotreatment (GPX4): increased
COc1ccccc1C(=O)/C(C)=C/c1ccc(N2CCCC2)cc1 [Compound B4]	–	–	–	–	IC50 (HeLa; [5]): 84.8 ± 2.69 µM; IC50 (SiHa; [6]): 44.7 ± 0.78 µM; IC50 (C-33A; [7]): > 100 µM; IC50 (H8; [8]): > 100 µM
COc1ccc(F)cc1C(=O)/C=C/c1ccc(N2CCCC2)cc1 [Compound B1]	0.22 ± 0.01	0.24 ± 0.03	0.95 ± 0.02	45.8 ± 1.61	IC50 (HeLa; Homo sapiens, HeLa, read-out: IC50 HeLa): ~0.22 µM; IC50 (SiHa; Homo sapiens, SiHa): ~0.24 µM; toxicity to H8 cells in words (H8): low toxicity
O=C(/C=C/c1ccc(N2CCCC2)cc1)c1cc(F)ccc1F [Compound C2]	27.1 ± 0.59	26.4 ± 1.11	44.1 ± 1.99	35.1 ± 0.95	IC50 (HeLa; Homo sapiens, HeLa): 9.3 µM
COc1ccc(Cl)cc1/C=C/C(=O)c1ccc(N2CCCC2)cc1 [Compound D3]	8.17 ± 0.46	10.9 ± 0.38	34.2 ± 1.3	22.6 ± 0.32	–
COc1ccc(C2=N[C@@H](c3ccc(Cl)cc3)[C@@H](c3ccc(Cl)cc3)N2C(=O)N2CCNC(=O)C2)c(OC(C)C)c1 [Nutlin-3a, reference compound]	–	–	–	–	IC50 (HeLa; [9]): 61.3 ± 1.42 µM; IC50 (SiHa; CCK-8, 48 h, Table 1): 56.6 ± 2.2 µM; IC50 (C-33A; CCK-8, 48 h, Table 1): 57 ± 2.81 µM; IC50 (H8; [10]): 45.5 ± 2.11 µM
O=C(/C=C/c1cccc(OC(F)(F)F)c1)c1ccc(N2CCCC2)cc1 [Compound D5]	32 ± 1.28	44.4 ± 1.64	> 100	> 100	–

Reference: paper PMC12921483 (Frontiers in Pharmacology, 2026)
